The source of these data is patent publication US10322097B2, “Treatment of subjects with multidrug-resistant cancer” (priority 2015, dated 2019).

Converted amounts (≈) assume the structure as drawn. Where two headings read alike, the source gives them in different places.

The subject of series [1] is HCT116 p53+/+ colon cancer cells. Nature of the series: MTT cytotoxicity assay, HCT116 p53+/+. To be noted: Homo sapiens, HCT-116, 72 h, read-out: IC50 HCT116 p53+/+ colon cancer cells. The format is cell-based. How it is done:
(§1) Cell cultures and cytotoxicity assays have been used. Celastrol was dissolved in DMSO at a final concentration of 100 mmol/L and stored at −20° C. Cytotoxicity was assessed using the 3-(4,5-dimethylthiazol-2-yl)-2,5-diphenyltetrazolium bromide assay. 4000 cells from HCT116 p53^+/+ or p53^−/− colon cancer cells and DLD-1 Bax-Bak^+/+ or Bax-Bak^−/− colon cancer cells were seeded on 96-well plates per well. […] Subsequently, 10 μL of MTT reagents were added to each well and incubated at 37° C. for 4 hours followed by the addition of 100 μL solubilization buffer (10% SDS in 0.01 mol/L HCl) and overnight incubation. […] The percentage of cell viability was calculated using the following formula: Cell viability (%)=Cells number treated/Cells number DMSO control×100. Data were obtained from three independent experiments.
(Formazan colour is commonly taken as a measure of viable cells.)

In series [2] the test system is HCT116 p53-/- colon cancer cells. The series can be described thus: MTT cytotoxicity assay, HCT116 p53-/-. Format: cell-based. The note with it: for IC50: Homo sapiens, HCT-116, 72 h, read-out: IC50 HCT116 p53-/- colon cancer cells; for Resistant Factor: IC50 HCT116 p53-/- divided by IC50 HCT116 p53+/+. How it is done: as §1
Series [3] has as its system DLD-1 Bax-Bak+/+ colon cancer cells. Nature of the series: MTT cytotoxicity assay, DLD-1 Bax-Bak+/+. Format: cell-based. To be noted: Homo sapiens, DLD-1, 72 h; MTT, 3 days; read-out: IC50 DLD-1 Bax-Bak+/+ colon cancer cells. How it is done:
as §1

Series [4] concerns DLD-1 Bax-Bak-/- colon cancer cells. The series can be described thus: MTT cytotoxicity assay, DLD-1 Bax-Bak-/-. Format: cell-based. To be noted: for IC50: Homo sapiens, DLD-1, 72 h, MTT, 3 days, read-out: IC50 DLD-1 Bax-Bak-/- colon cancer cells; for Resistant Factor: IC50 DLD-1 Bax-Bak-/- divided by IC50 DLD-1 Bax-Bak+/+. How it is done: as §1
The subject of series [5] is MCF-7 (Breast) doxorubicin resistant cancer cells. The series can be described thus: MTT cytotoxicity assay, MCF-7 doxorubicin resistant. The format is cell-based, human. How it is done:
Cell cultures and cytotoxicity assays have been used. Celastrol was dissolved in DMSO at a final concentration of 100 mmol/L and stored at −20° C. Cytotoxicity was assessed using the 3-(4,5-dimethylthiazol-2-yl)-2,5-diphenyltetrazolium bromide assay. 4000 cells from MCF-7 doxorubicin sensitive/resistant breast cancer cells or CEM doxorubicin sensitive/resistant leukemia cells were seeded on 96-well plates per well. After overnight pre-incubation, the cells were exposed to different concentrations of celastrol (0.039-100 μmol/L) or doxorubicin for 3 days. Subsequently, 10 μL of MTT reagents were added to each well and incubated at 37° C. for 4 hours followed by the addition of 100 μL solubilization buffer (10% SDS in 0.01 mol/L HCl) and overnight incubation. Absorbance at 585 nm was determined from each well the next day. The percentage of cell viability was calculated using the following formula: Cell viability (%)=Cells number treated/Cells number DMSO control×100. Data were obtained from three independent experiments.

In series [6] the test system is A549 taxol-resistant lung cancer cells. The series can be described thus: MTT cytotoxicity of taxol in presence or absence of celastrol. The format is cell-based. To be noted: Homo sapiens, A549, 72 h, 3 days. How it is done:
Cell cultures and cytotoxicity assays have been carried out. Celastrol was dissolved in DMSO at a final concentration of 100 mmol/L and stored at −20° C. Cytotoxicity was assessed using the 3-(4,5-dimethylthiazol-2-yl)-2,5-diphenyltetrazolium bromide assay. 4000 cells from A549 taxol-resistant lung cancer cells were seeded on 96-well plates per well. After overnight pre-incubation, the cells were exposed to different concentrations of taxol (0.019-100 μmol/L) in the presence or absence of celastrol (0.5 μM) for 3 days. Subsequently, 10 μL of MTT reagents was added to each well and incubated at 37° C. for 4 hours followed by the addition of 100 μL solubilization buffer (10% SDS in 0.01 mol/L HCl) and overnight incubation. […] The percentage of cell viability was calculated using the following formula: Cell viability (%)=Cells number treated/Cells number DMSO control×100. Data were obtained from three independent experiments.

Series [7] has as its system A549 (Lung) taxol sensitive cancer cells. The series can be described thus: MTT cytotoxicity assay, A549 taxol sensitive. Format: cell-based. The note with it: Homo sapiens, A549, 72 h; MTT, 3 days; read-out: IC50 A549 (Lung) (Taxol sensitive). As for the experimental part: (§2) Cell cultures and cytotoxicity assays have been used. Celastrol was dissolved in DMSO at a final concentration of 100 mmol/L and stored at −20° C. Cytotoxicity was assessed using the 3-(4,5-dimethylthiazol-2-yl)-2,5-diphenyltetrazolium bromide assay. 4000 cells from A549 (lung), A2780 (ovary), HCT-8 (colon) and MCF-7 (breast) cancer cells were seeded on 96-well plates per well. After overnight pre-incubation, the cells were exposed to different concentrations of celastrol (0.039-100 μmol/L) or taxol for 3 days. Subsequently, 10 μL of MTT reagents was added to each well and incubated at 37° C. for 4 hours followed by the addition of 100 μL solubilization buffer (10% SDS in 0.01 mol/L HCl) and overnight incubation. Absorbance at 585 nm was determined from each well the next day. The percentage of cell viability was calculated using the following formula: Cell viability (%)=Cells number treated/Cells number DMSO control×100. Data were obtained from three independent experiments.

Series [8] concerns A549 (Lung) taxol resistant cancer cells. Nature of the series: MTT cytotoxicity assay, A549 taxol resistant. Format: cell-based, human. To be noted: for Resistant Factor: A549 taxol resistant versus taxol sensitive. How it is done:
as §2

The subject of series [9] is A2780 (Ovary) taxol sensitive cancer cells. Nature of the series: MTT cytotoxicity assay, A2780 taxol sensitive. Format: cell-based. The note with it: Homo sapiens, A2780, 72 h; MTT, 3 days; read-out: IC50 A2780 (Ovary) (Taxol sensitive). As for the experimental part:
as §2

Series [10] concerns A2780 (Ovary) taxol resistant cancer cells. Nature of the series: MTT cytotoxicity assay, A2780 taxol resistant. Format: cell-based, human. The note with it: for Resistant Factor: A2780 taxol resistant versus taxol sensitive. How it is done: as §2
Series [11] relates to HCT-8 (Colon) taxol sensitive cancer cells. Nature of the series: MTT cytotoxicity assay, HCT-8 taxol sensitive. To be noted: Homo sapiens, HCT-8, 72 h; MTT, 3 days; read-out: IC50 HCT-8 (Colon) (Taxol sensitive). Format: cell-based. How it is done: as §2
Series [12] concerns HCT-8 (Colon) taxol resistant cancer cells. The series can be described thus: MTT cytotoxicity assay, HCT-8 taxol resistant. Format: cell-based, human. The note with it: for Resistant Factor: HCT-8 taxol resistant versus taxol sensitive. As for the experimental part:
as §2

The subject of series [13] is MCF-7 (Breast) taxol sensitive cancer cells. The series can be described thus: MTT cytotoxicity assay, MCF-7 taxol sensitive. Format: cell-based. The note with it: Homo sapiens, MCF7, 72 h; MTT, 3 days; read-out: IC50 MCF-7 (Breast) (Taxol sensitive). How it is done:
as §2

The subject of series [14] is MCF-7 (Breast) taxol resistant cancer cells. Nature of the series: MTT cytotoxicity assay, MCF-7 taxol resistant. Format: cell-based, human. As for the experimental part: as §2
The target in another series is P-gp (Homo sapiens, UniProt P08183). Nature of the series: Rho123 efflux assay in A549 taxol-resistant lung cancer cells (flow cytometry). The note with it: 0.5 μM celastrol, pristimerin or dihydrocelastrol, or 10 μM verapamil, 24 h, then Rho123 1 h. As for the experimental part: A549 taxol-resistant lung cancer cells were seeded in 6 well-plates at a final concentration of 2×10^5 cells per well and cultured for 24 h at 37° C. in an atmosphere containing 5% CO2. […] Subsequently, 5 mg/mL Rho123 was added to each well and the wells were incubated for another 1 h at 37° C. At the end of the incubation, the accumulation of Rho123 was stopped by washing the cells five times with ice-cold PBS. After cell centrifugation, cell pellets were resuspended in 400 μL PBS. […] All data acquisition and analyses were performed with CellQuest (BD Biosciences, San Jose, Calif., USA) in triplicate in three independent experiments, and the results were shown as the mean of fluorescence intensity.
A549 taxol-resistant lung cancer cells were seeded in 6 well-plates at a final concentration of 2×10^5 cells per well and cultured for 24 h at 37° C. in an atmosphere containing 5% CO2. […] All data acquisition and analyses were performed with CellQuest (BD Biosciences, San Jose, Calif., USA) in triplicate in three independent experiments, and the results were shown as the mean of fluorescence intensity.
A general note: In flow cytometry, cells or beads pass a laser one at a time.

Chain of P-gp (P08183 whole entry): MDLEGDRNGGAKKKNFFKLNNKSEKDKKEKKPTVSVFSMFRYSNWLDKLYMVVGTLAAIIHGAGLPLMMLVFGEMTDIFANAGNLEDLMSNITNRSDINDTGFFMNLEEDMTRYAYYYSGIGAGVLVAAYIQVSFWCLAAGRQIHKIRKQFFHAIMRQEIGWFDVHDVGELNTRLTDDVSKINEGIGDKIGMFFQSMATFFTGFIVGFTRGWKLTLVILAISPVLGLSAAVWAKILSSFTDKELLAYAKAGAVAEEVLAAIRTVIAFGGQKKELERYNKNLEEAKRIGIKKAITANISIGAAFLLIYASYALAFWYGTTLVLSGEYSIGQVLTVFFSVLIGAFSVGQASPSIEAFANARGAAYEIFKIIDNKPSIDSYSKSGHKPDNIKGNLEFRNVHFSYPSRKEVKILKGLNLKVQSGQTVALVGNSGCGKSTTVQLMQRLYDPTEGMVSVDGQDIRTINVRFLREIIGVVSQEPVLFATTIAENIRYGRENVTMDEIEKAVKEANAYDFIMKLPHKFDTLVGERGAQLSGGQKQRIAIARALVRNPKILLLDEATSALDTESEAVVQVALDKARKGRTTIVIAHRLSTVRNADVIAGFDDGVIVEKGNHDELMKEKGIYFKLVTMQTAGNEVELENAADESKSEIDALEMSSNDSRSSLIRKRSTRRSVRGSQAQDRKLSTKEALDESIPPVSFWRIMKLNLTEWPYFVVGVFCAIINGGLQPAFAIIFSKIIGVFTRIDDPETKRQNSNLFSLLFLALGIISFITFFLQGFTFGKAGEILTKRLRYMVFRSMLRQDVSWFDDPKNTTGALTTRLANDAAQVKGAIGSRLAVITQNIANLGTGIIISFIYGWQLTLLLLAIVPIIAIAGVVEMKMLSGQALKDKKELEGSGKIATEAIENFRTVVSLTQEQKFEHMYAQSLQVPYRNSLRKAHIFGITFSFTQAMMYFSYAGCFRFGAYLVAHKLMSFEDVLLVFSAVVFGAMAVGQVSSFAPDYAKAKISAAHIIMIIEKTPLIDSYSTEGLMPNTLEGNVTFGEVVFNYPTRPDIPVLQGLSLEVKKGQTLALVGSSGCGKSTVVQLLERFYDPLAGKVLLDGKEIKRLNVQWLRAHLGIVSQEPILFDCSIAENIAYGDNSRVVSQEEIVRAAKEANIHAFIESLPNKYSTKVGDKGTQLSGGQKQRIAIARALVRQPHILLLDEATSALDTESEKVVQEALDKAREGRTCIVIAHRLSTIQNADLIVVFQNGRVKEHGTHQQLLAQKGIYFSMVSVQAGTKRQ

As for `COc1cccc2c1C(=O)c1c(O)c3c(c(O)c1C2=O)C[C@@](O)(C(=O)CO)C[C@@H]3O[C@H]1C[C@H](N)[C@H](O)[C@H](C)O1` [Doxorubicin, doxorubicin], the IC50 came out at 520 nM in series [1]; 10200 nM in series [2]; 0.0523 µg/mL in series [3]; 0.539 µg/mL in [4]; 10 µg/mL (≈ 18.4 µM) in series [5] (Homo sapiens, MCF7, 72 h, MTT, 3 days, read-out: IC50 MCF-7 (Breast) (Doxorubicin resistant)). Moreover, the “Resistant Factor” value in series [2] stood at 19.52; in series [4], 10.31; in [5] (MCF-7 doxorubicin resistant versus doxorubicin sensitive), 21.6.
As to `CN[C@@H]1C[C@H]2O[C@@](C)([C@@H]1OC)n1c3ccccc3c3c4c(c5c6ccccc6n2c5c31)C(=O)NC4` [Staurosporine, staurosporine], the IC50 in series [2] (MTT, 3 days) came to 48 nM. For the same molecule, the “Resistant Factor” value stood at 13.01 in series [2] and 3.34 in series [4].
For `CC(=O)O[C@H]1C(=O)[C@@]2(C)[C@H]([C@H](OC(=O)c3ccccc3)[C@]3(O)C[C@H](OC(=O)[C@H](O)[C@@H](NC(=O)c4ccccc4)c4ccccc4)C(C)=C1C3(C)C)[C@]1(OC(C)=O)CO[C@@H]1C[C@@H]2O` [Taxol, paclitaxel (taxol)], the IC50 in [6] (co-treated with 0.5 μM celastrol, read-out: mean IC50 of taxol in the presence of celastrol) was 2170 nM; in [6] (taxol alone, read-out: mean IC50 of taxol), 36000 nM; in series [1] (MTT, 3 days) it was 19.5 nM; in [2] (MTT, 3 days), 251 nM; in [3] it was 4.31 nM; in [4], > 100 nM. Moreover, the IC50 is 34 nM in series [7]; 30400 nM in series [8] (Homo sapiens, A549, 72 h, MTT, 3 days, read-out: IC50 A549 (Lung) (Taxol resistant)); < 1 nM in series [9]; 62000 nM in [10] (Homo sapiens, A2780, 72 h, MTT, 3 days, read-out: IC50 A2780 (Ovary) (Taxol resistant)); < 1 nM in [11]; 32000 nM in [12] (Homo sapiens, HCT-8, 72 h, MTT, 3 days, read-out: IC50 HCT-8 (Colon) (Taxol resistant)). Also, the IC50 was < 1 nM in [13] and 5000 nM in series [14] (Homo sapiens, MCF7, 72 h, MTT, 3 days, read-out: IC50 MCF-7 (Breast) (Taxol resistant)). Moreover, the “Resistant Factor” value in series [2] is recorded as 12.87; in [4], >23.2; in series [8], 894.12; in series [8] (listed as taxol), “over 894”; in [10] it was >62000; in [10] (listed as taxol), “over 62000”. The “Resistant Factor” value in series [12] is reported as >31000; in series [12] (listed as taxol), 31000; in [14] (MCF-7 taxol resistant versus taxol sensitive), 5000.
Turning to `COC(=O)[C@]1(C)CC[C@]2(C)CC[C@]3(C)C4=CC=C5C(=CC(=O)C(O)=C5C)[C@]4(C)CC[C@@]3(C)[C@@H]2C1` [pristimerin], the “P-gp activity / Rho123 accumulation (Example 9)” value at P-gp is on record as “showed P-pg inhibition”.
For `COc1cc([C@@H]2c3cc4c(cc3[C@@H](O[C@@H]3O[C@@H]5CO[C@@H](C)O[C@H]5[C@H](O)[C@H]3O)[C@H]3COC(=O)[C@H]23)OCO4)cc(OC)c1O` [Etoposide, etoposide], the IC50 in [1] (MTT, 3 days) amounted to 940 nM; in [2] (MTT, 3 days) it was 10600 nM; in series [3], 2360 nM; in series [4] it was 40400 nM. Also, the “Resistant Factor” value in series [2] came out at 11.28; in [4], 17.12.
